Source: ChEMBL document CHEMBL4411307, “N,N'-diaryl-bishydrazones in a biphenyl platform: Broad spectrum antifungal agents” (Eur J Med Chem, 2019)
≈ marks a conversion by molar mass, not a printed value. Calls of active or inactive are those of the source. The rule behind the calls is not given here.

Key:
Listeria monocytogenes = experiment: Antibacterial activity against Listeria monocytogenes; assay type: functional, organism-based
Candida albicans [1] = experiment: Antifungal activity against fluconazole/ITC-resistant Candida albicans ATCC 10231 measured after 48 hrs by CLSI M27-A3 protocol based method; assay type: functional; settings: ATCC 10231, 48 h
Candida albicans [2] = experiment: Antifungal activity against fluconazole/ITC-resistant Candida albicans ATCC 64124 measured after 48 hrs by CLSI M27-A3 protocol based method; assay type: functional; settings: ATCC 64124, 48 h
Candida albicans [3] = experiment: Antifungal activity against fluconazole/ITC-susceptible Candida albicans ATCC MYA-2876 measured after 48 hrs by CLSI M27-A3 protocol based method; assay type: functional; settings: ATCC MYA-2876, 48 h
Candida albicans [4] = experiment: Antifungal activity against fluconazole/ITC-susceptible Candida albicans ATCC MYA-2310 measured after 48 hrs by CLSI M27-A3 protocol based method; assay type: functional; settings: ATCC MYA-2310, 48 h
Candida albicans [5] = experiment: Antifungal activity against fluconazole/ITC-resistant Candida albicans ATCC MYA-1237 measured after 48 hrs by CLSI M27-A3 protocol based method; assay type: functional; settings: ATCC MYA-1237, 48 h
Candida albicans [6] = experiment: Antifungal activity against fluconazole/ITC-resistant Candida albicans ATCC MYA-1003 measured after 48 hrs by CLSI M27-A3 protocol based method; assay type: functional; settings: ATCC MYA-1003, 48 h
Pichia kudriavzevii = experiment: Antifungal activity against Candida krusei ATCC 6258 measured after 48 hrs by CLSI M27-A3 protocol based method; assay type: functional; settings: ATCC 6258, 48 h
Candida parapsilosis = experiment: Antifungal activity against Candida parapsilosis ATCC 22019 measured after 48 hrs by CLSI M27-A3 protocol based method; assay type: functional; settings: Lodderomyces parapsilosis, ATCC 22019, 48 h
Aspergillus flavus = experiment: Antifungal activity against Aspergillus flavus ATCC MYA-3631 measured after 48 hrs by CLSI M38-A2 protocol based method; assay type: functional; settings: ATCC MYA-3631, 48 h
Aspergillus terreus = experiment: Antifungal activity against Aspergillus terreus ATCC MYA-3633 measured after 48 hrs by CLSI M38-A2 protocol based method; assay type: functional; settings: ATCC MYA-3633, 48 h
Candida albicans [7] = experiment: Antibiofilm activity against fluconazole/ITC-resistant Candida albicans ATCC 10231 assessed as reduction in sessile growth after 24 hrs by XTT assay; assay type: functional; settings: ATCC 10231, 24 h
Candida albicans [8] = experiment: Antibiofilm activity against fluconazole/ITC-resistant Candida albicans ATCC 64124 assessed as reduction in sessile growth after 24 hrs by XTT assay; assay type: functional; settings: ATCC 64124, 24 h
Candida albicans [9] = experiment: Selectivity ratio of MIC50 for antibiofilm activity against fluconazole/ITC-resistant Candida albicans ATCC 10231 assessed as reduction in sessile growth to MIC for fluconazole/ITC-resistant Candida albicans ATCC 10231; assay type: functional
Candida albicans [10] = experiment: Selectivity ratio of MIC50 for antibiofilm activity against fluconazole/ITC-resistant Candida albicans ATCC 64124 assessed as reduction in sessile growth to MIC for fluconazole/ITC-resistant Candida albicans ATCC 64124; assay type: functional
BEAS-2B = experiment: Cytotoxicity against human BEAS2B cells after 24 hrs by resazurin based assay; assay type: cell-based
[11] = Selectivity index, ratio of CC50 for human A549 cells to MIC for fluconazole/ITC-susceptible Candida albicans ATCC MYA-2876; assay type: toxicity; settings: read-out: Selectivity Index
[12] = Selectivity index, ratio of CC50 for human A549 cells to MIC for fluconazole/ITC-resistant Candida albicans ATCC 90819; assay type: toxicity; settings: read-out: Selectivity Index
[13] = Selectivity index, ratio of CC50 for human A549 cells to MIC for fluconazole/ITC-resistant Candida albicans ATCC MYA-1237; assay type: toxicity; settings: read-out: Selectivity Index
[14] = Selectivity index, ratio of CC50 for human A549 cells to MIC for fluconazole/ITC-resistant Candida albicans ATCC MYA-1003; assay type: toxicity; settings: read-out: Selectivity Index
[15] = Selectivity index, ratio of CC50 for human A549 cells to MIC for Candida glabrata ATCC 2001; assay type: toxicity; settings: read-out: Selectivity Index
[16] = Selectivity index, ratio of CC50 for human A549 cells to MIC for Candida krusei ATCC 6258; assay type: toxicity; settings: read-out: Selectivity Index
[17] = Selectivity index, ratio of CC50 for human A549 cells to MIC for Candida parapsilosis ATCC 22019; assay type: toxicity; settings: read-out: Selectivity Index
[18] = Selectivity index, ratio of CC50 for human A549 cells to MIC for Aspergillus flavus ATCC MYA-3631; assay type: toxicity; settings: read-out: Selectivity Index
[19] = Selectivity index, ratio of CC50 for human A549 cells to MIC for Aspergillus nidulans ATCC 38163; assay type: toxicity; settings: read-out: Selectivity Index
[20] = Selectivity index, ratio of CC50 for human A549 cells to MIC for Aspergillus terreus ATCC MYA-3633; assay type: toxicity; settings: read-out: Selectivity Index
[21] = Hemolytic activity in mouse RBC at […] after 1 hr relative to control; assay type: ADME, cell-based, Erythrocyte; settings: red blood cells (erythrocytes), read-out: Activity; also: tested at 0.48 µg/mL
[22] = Hemolytic activity in mouse RBC at 7.8 ug/ml after 1 hr relative to control; assay type: ADME, cell-based, Erythrocyte; settings: red blood cells (erythrocytes), read-out: Activity
[23] = Selectivity index, ratio of compound concentration showing <20 to <30% hemolysis in mouse RBC to MIC for fluconazole/ITC-resistant Candida albicans ATCC 10231; assay type: toxicity; settings: red blood cells (erythrocytes), read-out: Selectivity Index
[24] = Selectivity index, ratio of compound concentration showing <20 to <30% hemolysis in mouse RBC to MIC for fluconazole/ITC-susceptible Candida albicans ATCC MYA-2876; assay type: toxicity; settings: red blood cells (erythrocytes), read-out: Selectivity Index
[25] = Selectivity index, ratio of compound concentration showing <20 to <30% hemolysis in mouse RBC to MIC for fluconazole/ITC-resistant Candida albicans ATCC 90819; assay type: toxicity; settings: red blood cells (erythrocytes), read-out: Selectivity Index
[26] = Selectivity index, ratio of compound concentration showing <20 to <30% hemolysis in mouse RBC to MIC for Candida glabrata ATCC 2001; assay type: toxicity; settings: mouse red blood cells (RBC), read-out: Selectivity Index
[27] = Selectivity index, ratio of compound concentration showing <20 to <30% hemolysis in mouse RBC to MIC for Candida parapsilosis ATCC 22019; assay type: toxicity; settings: mouse red blood cells (RBC), read-out: Selectivity Index
Candida albicans [28] = experiment: Fungicidal activity against fluconazole/ITC-resistant Candida albicans ATCC 64124 assessed as reduction in fungal growth at 0.5 to 2 times MIC incubated for 24 hrs followed by replating on PDA plates measured after 48 hrs Time-Kill assay; assay type: functional, organism-based
[29] = target: Voltage-gated inwardly rectifying potassium channel KCNH2 (Homo sapiens, UniProt Q12809); experiment: Inhibition of [3H]-dofetilide binding to human ERG expressed in HEK293 cell membranes measured after 1 hr by liquid scintillation counting method
Sequence of Voltage-gated inwardly rectifying potassium channel KCNH2 (Q12809 whole entry): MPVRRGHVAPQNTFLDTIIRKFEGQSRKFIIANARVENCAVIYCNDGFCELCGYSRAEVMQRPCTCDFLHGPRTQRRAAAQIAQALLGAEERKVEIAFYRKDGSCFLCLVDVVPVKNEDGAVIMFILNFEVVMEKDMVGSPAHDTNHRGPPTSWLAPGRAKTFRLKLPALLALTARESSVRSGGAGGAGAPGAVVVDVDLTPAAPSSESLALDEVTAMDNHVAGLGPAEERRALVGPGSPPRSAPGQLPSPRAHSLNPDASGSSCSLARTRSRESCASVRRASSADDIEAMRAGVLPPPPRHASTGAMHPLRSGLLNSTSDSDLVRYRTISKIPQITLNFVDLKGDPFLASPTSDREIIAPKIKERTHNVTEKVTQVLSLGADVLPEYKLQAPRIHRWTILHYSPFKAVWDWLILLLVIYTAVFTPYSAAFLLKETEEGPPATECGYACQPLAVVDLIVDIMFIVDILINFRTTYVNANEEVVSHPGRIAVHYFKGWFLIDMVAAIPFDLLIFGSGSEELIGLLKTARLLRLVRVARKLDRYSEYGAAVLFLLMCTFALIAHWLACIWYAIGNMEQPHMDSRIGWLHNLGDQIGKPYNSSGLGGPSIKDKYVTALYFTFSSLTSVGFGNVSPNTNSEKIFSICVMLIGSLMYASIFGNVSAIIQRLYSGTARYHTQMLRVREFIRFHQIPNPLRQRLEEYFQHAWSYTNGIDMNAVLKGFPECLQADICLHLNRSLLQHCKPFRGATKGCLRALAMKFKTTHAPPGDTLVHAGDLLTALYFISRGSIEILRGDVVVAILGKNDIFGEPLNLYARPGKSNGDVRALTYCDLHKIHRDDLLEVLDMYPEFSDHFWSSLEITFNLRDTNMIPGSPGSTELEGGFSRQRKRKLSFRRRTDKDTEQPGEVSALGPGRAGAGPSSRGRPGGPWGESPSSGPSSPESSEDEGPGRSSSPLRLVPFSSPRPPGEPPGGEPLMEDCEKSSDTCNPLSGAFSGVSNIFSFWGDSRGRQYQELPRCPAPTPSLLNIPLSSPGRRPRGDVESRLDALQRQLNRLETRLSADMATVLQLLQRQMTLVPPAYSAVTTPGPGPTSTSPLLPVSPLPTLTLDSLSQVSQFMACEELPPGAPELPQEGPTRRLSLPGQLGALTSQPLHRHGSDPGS

Candida albicans [30] = experiment: Selectivity ratio of MIC90 for antibiofilm activity against fluconazole/ITC-resistant Candida albicans ATCC 10231 assessed as reduction in sessile growth to MIC for fluconazole/ITC-resistant Candida albicans ATCC 10231; assay type: functional
Candida albicans [31] = experiment: Selectivity ratio of MIC90 for antibiofilm activity against fluconazole/ITC-resistant Candida albicans ATCC 64124 assessed as reduction in sessile growth to MIC for fluconazole/ITC-resistant Candida albicans ATCC 64124; assay type: functional

C/C(=N\Nc1ccc(F)cc1)c1ccc(-c2ccc(/C(C)=N/Nc3ccc(F)cc3)cc2)cc1
Activity (Listeria monocytogenes): inactive | MIC (Candida albicans [1]): 1.95 µg/mL (≈ 4.29 µM) | MIC (Candida albicans [2]): 3.9 µg/mL (≈ 8.58 µM) | MIC (Candida albicans [3]): 3.9 µg/mL (≈ 8.58 µM) | MIC (Candida albicans [4]): 1.95 µg/mL (≈ 4.29 µM) | MIC (Candida albicans [5]): 7.8 µg/mL (≈ 17.2 µM) | MIC (Candida albicans [6]): 7.8 µg/mL (≈ 17.2 µM) | MIC (Pichia kudriavzevii): 1.95 µg/mL (≈ 4.29 µM) | MIC (Candida parapsilosis): 15.6 µg/mL (≈ 34.3 µM) | MIC (Aspergillus flavus): > 31.3 µg/mL | MIC (Aspergillus terreus): > 31.3 µg/mL | MIC50 (Candida albicans [7]): 8 µg/mL (≈ 17.6 µM) | MIC90 (Candida albicans [7]): > 32 µg/mL | MIC50 (Candida albicans [8]): 16 µg/mL (≈ 35.2 µM) | MIC90 (Candida albicans [8]): > 32 µg/mL | selectivity ratio (Candida albicans [9]): 4 | selectivity ratio (Candida albicans [10]): 4 | CC50 (BEAS-2B): 10.7 µg/mL (≈ 23.5 µM) | selectivity ratio [11]: 4.3 | selectivity ratio [12]: 2.1 | selectivity ratio [13]: 2.1 | selectivity ratio [14]: 2.1 | selectivity ratio [15]: 1.1 | selectivity ratio [16]: 8.5 | selectivity ratio [17]: 1.1 | selectivity ratio [18]: 0.5 | selectivity ratio [19]: 2.1 | selectivity ratio [20]: 0.5 | hemolysis at 1 h, […] [21]: 0% | hemolysis at 1 h, 7.8 ug/ml [22]: 5.9% | selectivity ratio [23]: 1 to 32 | selectivity ratio [24]: 1 to 32 | selectivity ratio [25]: 1 to 32 | selectivity ratio [26]: 1 to 32 | selectivity ratio [27]: 1 to 32 | Activity (Candida albicans [28]): Active | IC50 [29]: > 30 µM | selectivity ratio (Candida albicans [30]): 16 | selectivity ratio (Candida albicans [31]): 8
